Assay results as given in US20020055470A1, “Circumvention of human tumor drug resistance” (CITY OF HOPE, priority 1987, published 2002).
pEC50: −log10 of the molar value. Where “and” joins values, the source holds several entries; their conditions need not be identical. Identical values can stand only once. Like-named read-outs stand apart in the source and are kept apart here. Blank lines part the entries; values can stand above or below the compound they belong to.

Experiments:
Assay type in all cases: cell-based, human
A2780DDP [1] = experiment: Inhibition of cell growth (cells counted on Coulter Counter after six days); details: for Ratio (degree of resistance or cross-resistance): A2780DDP vs A2780S EC50
Method: The experiment was conducted in triplicate in the manner described with respect to Table I. […]
(§1) Table VI includes EC50 data further exemplifying the invention. The data reported by Table VI was obtained by substantially the same procedure as that described with respect to Table III. In Table VI, “(C)” indicates continuous exposure, “(1 h)” and “(2 h)” indicate exposure for 1 hour and 2 hours; “HU” indicates hydroxyurea.

K562-araC = experiment: Inhibition of cell growth, Table VI; details: for pEC50: K562-araC
Method: as §1

K562S = experiment: Inhibition of cell growth, Table VI
Method: as §1

K562-DDP = experiment: Inhibition of cell growth, Table VI; details: K562-DDP
A2780S [2] = experiment: Inhibition of cell growth (cells counted on Coulter Counter after six days)
Method: The experiment was conducted in triplicate in the manner described with respect to Table I.
A2780 cells were well-plated (35 mm disnes) and 24 hours later the cells were treated with cisplatin for one hour, washed out and then treated with 6 concentrations of from 1 μM to 100 μM increased in equal increments of a nucleoside analog in saline. Cells were then washed and incubated for six days. The cells were counted on a Coulter Counter and the experiment was done in triplicate.
as §1

HCT8DDP = experiment: as above
Method: as §1

HCT8S = experiment: as above
Method: as §1

HCF7S = experiment: Inhibition of cell growth, Table VI
K562-VP16 = experiment: Inhibition of cell growth, Table VI
HCF-7 DDP = experiment: Inhibition of cell growth, Table VI; details: for pEC50: HCF-7 DDP
Method: as §1

A2780DDP [3] = experiment: Dual labeled (14C/3H) DNA synthesis and degradation in response to cisplatin; incorporation of labelled nucleoside analogs; details: cisplatin 20 μM
Excerpt: A dual labeled (^14C/^3H) experiment was designed to measure simultaneously DNA synthesis and degradation in response to cisplatin.

A2780S [4] = experiment: Dual labeled (14C/3H) DNA synthesis and degradation in response to cisplatin; details: cisplatin 20 μM
Method: A dual labeled (^14C/^3H) experiment was designed to measure simultaneously DNA synthesis and degradation in response to cisplatin. […] A2780S cells respond to cisplatin with a modest degradation (10%) of (^14C) DNA over 3 hrs. In contrast, A2780DDP degradation 40.5% of the (^14C) DNA in 3 hrs. […] Transplatin at equimolar concentrations (20 μM) had no influence on DNA synthesis or degradation in A2780 cells.

[5] = A2780 DDP, (C) continuous exposure, read-out: EC50
[6] = A2780S, (C) continuous exposure, read-out: EC50
[7] = HCT8-DDP, (C) continuous exposure, read-out: EC50
[8] = (C) continuous exposure, read-out: EC50
[9] = Homo sapiens, A2780 DDP, (C) continuous exposure, read-out: EC50
[10] = Homo sapiens, (C) continuous exposure
[11] = Homo sapiens, A2780S, (C) continuous exposure, read-out: EC50
[12] = Homo sapiens, HCT8-DDP, (C) continuous exposure, read-out: EC50
[13] = Homo sapiens, (C) continuous exposure, read-out: EC50

SMILES: N.N.[Cl][Pt][Cl] [Cisplatin, cisplatin]
- Ratio (degree of resistance or cross-resistance) (A2780DDP [1]; treatment time 1 hr): +12.8
- pEC50 (A2780DDP [1]; A2780 DDP, (1h) exposure, read-out: EC50): 4.05
- fold resistance, cisplatin resistant vs sensitive A2780 cells (A2780DDP [1]; A2780 ovarian carcinoma cells): > 12 fold
- pEC50 (A2780DDP [1]; treatment time 1 hr, proliferation during 6 days, mean + SD, read-out: EC50 A2780DDP): 4.05
- pEC50 (K562-araC; (1h) exposure): 4.60
- pEC50 (HCF-7 DDP; (1h) exposure): 4.46
- fold resistance, cispt resistant vs sensitive MCF7 cells (HCF-7 DDP; MCF7 human breast cancer cells): 2.3 fold
- pEC50 (K562S; (1h) exposure): 5.22
- pEC50 (K562-DDP; (1h) exposure): 4.82
- pEC50 (A2780S [2]; A2780S, (1h) exposure, read-out: EC50): 5.15
- pEC50 (A2780S [2]; treatment time 1 hr, proliferation during 6 days, mean + SD, read-out: EC50 A2780S): 5.15
- pEC50 (HCT8DDP; HCT8-DDP, (1h) exposure, read-out: EC50): 4.00
- fold resistance, cispt resistant vs sensitive HCT8 cells (HCT8DDP; HCT8 human colon cancer cells): 2.7 fold
- pEC50 (HCT8S; (1h) exposure, read-out: EC50): 4.52
- degradation of (14C) DNA (A2780DDP [3]; A2780DDP, in 3 hrs): 40.5%
- 14C-Tdr/DNA A2780DDP (A2780DDP [3]; treatment time 0 min): 17.78
- 14C-Tdr/DNA A2780DDP (A2780DDP [3]; treatment time 45 min): 14.44
- 14C-Tdr/DNA A2780DDP (A2780DDP [3]; treatment time 90 min): 12.59
- 14C-Tdr/DNA A2780DDP (A2780DDP [3]; treatment time 180 min): 10.57
- pEC50 (HCF7S; (1h) exposure): 4.82
- pEC50 (K562-VP16; (1h) exposure): 4.82
- degradation of (14C) DNA (A2780S [4]; A2780S, over 3 hrs): 10%
- 14C-Tdr/DNA A2780S (A2780S [4]; treatment time 0 min): 6.49
- 14C-Tdr/DNA A2780S (A2780S [4]; treatment time 45 min): 6.21
- 14C-Tdr/DNA A2780S (A2780S [4]; treatment time 90 min): 5.71
- 14C-Tdr/DNA A2780S (A2780S [4]; treatment time 180 min): 6.06

SMILES: Nc1nc2c(ncn2COCCO)c(=O)[nH]1 [Acyclovir]
- pEC50 (A2780DDP [1]; [9]): < 3.52
- pEC50 (K562-araC; [10]): < 3.52
- pEC50 (HCF-7 DDP; [10]): < 3.52
- pEC50 (K562S; [10]): < 3.52
- pEC50 (K562-DDP; [10]): < 3.52
- pEC50 (A2780S [2]; [11]): < 3.52
- pEC50 (HCT8DDP; [12]): < 3.52
- pEC50 (HCT8S; [13]): < 3.52
- pEC50 (HCF7S; [10]): < 3.52
- pEC50 (K562-VP16; [10]): < 3.52

SMILES: Nc1ncnc2c1ncn2[C@@H]1O[C@H](CO)C[C@H]1O [Cordicpin]
- pEC50 (A2780DDP [1]; [5]): 3.51
- pEC50 (K562-araC; (C) continuous exposure): 4.17
- fold more sensitive, araC resistant vs sensitive K562 cells (K562-araC; K562 human leukemia cells): 2 fold
- pEC50 (K562S; (C) continuous exposure): 3.89
- pEC50 (K562-DDP; (C) continuous exposure): 3.80
- pEC50 (A2780S [2]; [6]): 4.15
- pEC50 (HCT8DDP; [7]): 4.02
- pEC50 (HCT8S; [8]): 3.96
- pEC50 (HCF7S; (C) continuous exposure): 3.89
- pEC50 (K562-VP16; (C) continuous exposure): 3.82

Further lines, with some results ahead:

- pEC50 (K562-araC; (C) continuous exposure): 4.38
- pEC50 (K562S; (C) continuous exposure): 4.21
- pEC50 (K562-DDP; (C) continuous exposure): 4.12
- pEC50 (K562-VP16; (C) continuous exposure): 4.26
SMILES: NC(=O)c1ncn([C@@H]2O[C@H](CO)[C@@H](O)[C@H]2O)n1 [Ribovirin]
- pEC50 (A2780DDP [1]; [5]): 4.35
- pEC50 (A2780S [2]; [6]): 4.57
- pEC50 (HCT8DDP; [7]): 4.30
- pEC50 (HCT8S; [8]): 4.15
- pEC50 (HCF7S; (C) continuous exposure): 4.00

- pEC50 (K562-araC; (2h) exposure): 5.10
- pEC50 (K562S; (2h) exposure): 6.52
- pEC50 (K562-DDP; (2h) exposure): 6.52
- pEC50 (K562-VP16; (2h) exposure): 5.10
SMILES: Nc1ccn([C@@H]2O[C@H](CO)[C@@H](O)[C@@H]2O)c(=O)n1 [araC]
- Ratio (degree of resistance or cross-resistance) (A2780DDP [1]; continuous exposure): +45.0
- pEC50 (A2780DDP [1]; A2780 DDP, (2h) exposure, read-out: EC50): 5.35
- pEC50 (A2780DDP [1]; continuous exposure, proliferation during 6 days, mean + SD, read-out: EC50 A2780DDP): 5.35
- pEC50 (HCF-7 DDP; (2h) exposure): 5.30
- pEC50 (A2780S [2]; A2780S, (2h) exposure, read-out: EC50): 7.00
- pEC50 (A2780S [2]; continuous exposure, proliferation during 6 days, mean + SD, read-out: EC50 A2780S): 7.00
- pEC50 (HCT8DDP; HCT8-DDP, (2h) exposure, read-out: EC50): 4.10
- pEC50 (HCT8S; (2h) exposure, read-out: EC50): 4.54
- pEC50 (HCF7S; (2h) exposure): 5.60

- pEC50 (K562-araC; [10]): 4.70
- pEC50 (K562S; [10]): 5.00
- pEC50 (K562-DDP; [10]): 3.53
- pEC50 (K562-VP16; [10]): 3.60
SMILES: Nc1nc(O)c2ncn(COC(CO)CO)c2n1 [Ganciclovir, ganciclovir]
- fold more sensitive (lower concentration), cisplatin resistant vs sensitive A2780 cells (A2780DDP [1]; A2780DDP vs A2780S): 3-4 fold and 3.3 fold
- pEC50 (A2780DDP [1]; [9]): 4.52
- pEC50 (A2780DDP [1]; Homo sapiens, A2780DDP, treated 24 h after plating, counted six days later, mean + SD, read-out: Ganciclovir EC50): 4.52
- pEC50 (HCF-7 DDP; [10]): 4.30
- fold more sensitive, cispt resistant vs sensitive MCF7 cells (HCF-7 DDP; MCF7 human breast cancer cells): 4 fold
- pEC50 (A2780S [2]; [11]): 3.96
- pEC50 (A2780S [2]; Homo sapiens, A2780S, treated 24 h after plating, counted six days later, mean + SD, read-out: Ganciclovir EC50): 3.96
- fold more sensitive, cispt resistant vs sensitive HCT8 cells (HCT8DDP; HCT8 human colon cancer cells): 1.5 fold
- pEC50 (HCT8DDP; [12]): 4.40
- pEC50 (HCT8DDP; Homo sapiens, HCT8DDP, treated 24 h after plating, counted six days later, mean + SD, read-out: Ganciclovir EC50): 4.40
- pEC50 (HCT8S; [13]): 4.22
- pEC50 (HCT8S; Homo sapiens, treated 24 h after plating, counted six days later, mean + SD, read-out: Ganciclovir EC50): 4.22
- pEC50 (HCF7S; [10]): 3.70
